Cc1ccc(-c2ccccc2C#N)cc1
solubility (mole fraction)
Conditions | 268.05 K | 272.97 K | 278.05 K | 283.15 K | 288.15 K | 293.15 K | 298.13 K | 303.05 K
in ethanol | 0.0142 | 0.0159 | 0.0168 | 0.0205 | 0.0284 | 0.041 | 0.0604 | 0.0958
in ethyl acetate | 0.163 | 0.196 | 0.237 | 0.284 | 0.341 | 0.412 | 0.482 | 0.569
